Consider 24 compounds from patent US9187472B2 (AbbVie Inc., priority 2012, dated 2015).

Assay [1] deals with NAMPT (human, recombinant, C-terminally His-tagged) (Homo sapiens, UniProt P43490). The assay is described as follows: Time-Resolved Fluorescence Resonance Energy Transfer (TR-FRET) Binding Assay of NAMPT. The note with it: without substrates; 6.8 nM NAMPT, 200 nM probe, 3 hours equilibration. The method, boiled down:
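Compounds, diluted in half-log steps, are mixed with enzyme (6.8 nM), fluorescent probe (200 nM) and Tb-anti-His antibody (1 nM) in pH 7.5 HEPES buffer containing 10 mM MgCl2 and 1 mM DTT. Plates equilibrate 3 h at room temperature; normalized FRET ratios are fitted by four-parameter logistic regression for IC50.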

The target in a further assay is NAMPT (Homo sapiens, UniProt P43490). Briefly: TR-FRET Binding Assay of NAMPT with PRPP. The note with it: with 200 μM PRPP and 2.5 mM ATP; 2 nM NAMPT, 2 nM probe, 16 hours equilibration. The method, boiled down:
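Compounds were mixed with 2 nM His-tagged NAMPT, 2 nM probe, 1 nM terbium anti-His antibody, 200 μM PRPP and 2.5 mM ATP in assay buffer with 2% DMSO, then left 16 hours to permit possible enzymatic processing of compounds before time-resolved FRET was measured.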
(In TR-FRET formats the signal depends on donor and acceptor labels being close together.)

The next assay relates to PC3 cells. Briefly: NAMPT Cell Proliferation Assay. As to conditions: Homo sapiens, PC-3, 120 h, 5 days incubation, cell viability by Cell Titer Glo. The class given is cell-based. The method, boiled down:
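IC50 values derive from sigmoidal dose-response fits of percent inhibition of PC3 viability, measured by luminescence after 5 days of compound treatment. Cells (500/well, RPMI containing 10% heat-inactivated FBS) are allowed to attach overnight, and compounds are tested at 10-fold dilutions between 10 μM and 1×10^−5 μM.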
A general note: ATP-based viability assays read luminescence as a measure of living cells.

Sequence of NAMPT (human, recombinant, C-terminally His-tagged) (P43490 whole entry): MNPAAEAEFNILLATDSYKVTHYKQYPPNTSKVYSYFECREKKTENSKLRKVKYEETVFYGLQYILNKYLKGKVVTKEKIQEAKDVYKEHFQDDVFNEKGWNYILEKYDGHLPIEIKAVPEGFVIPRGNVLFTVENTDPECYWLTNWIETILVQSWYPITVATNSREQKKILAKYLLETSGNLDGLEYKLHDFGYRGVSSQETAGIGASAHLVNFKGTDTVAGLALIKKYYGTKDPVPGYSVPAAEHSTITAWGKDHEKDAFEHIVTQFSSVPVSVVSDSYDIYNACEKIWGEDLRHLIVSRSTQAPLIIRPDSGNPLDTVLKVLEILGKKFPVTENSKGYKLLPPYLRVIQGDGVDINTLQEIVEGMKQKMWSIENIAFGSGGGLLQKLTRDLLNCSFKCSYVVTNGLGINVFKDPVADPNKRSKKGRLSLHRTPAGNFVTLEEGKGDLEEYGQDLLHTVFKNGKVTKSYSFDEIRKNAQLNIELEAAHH
Sequence of NAMPT (P43490 whole entry): as above

As usually defined, the IC50 is the concentration that inhibits the measured activity by half. Turning to `O=C(NCc1ccn2ccnc2c1)c1ccc(C2CCN(C(=O)[C@@H]3CCCO3)CC2)cc1` [Example 311, N-(imidazo[1,2-a]pyridin-7-ylmethyl)-4-{1-[(2S)-tetrahydrofuran-2-ylcarbonyl]piperidin-4-yl}benzamide], the values for the IC50 (in assay [1]; at NAMPT; in the assay on PC3 cells) were 0.289 µM, 0.000274 µM and 0.0191 µM, respectively.
`O=C(NCc1ccn2ccnc2c1)c1ccc(C2CCN(C(=O)CC3CC3)CC2)cc1` [Example 312, 4-[1-(cyclopropylacetyl)piperidin-4-yl]-N-(imidazo[1,2-a]pyridin-7-ylmethyl)benzamide]: the IC50 worked out at 0.165 µM in assay [1], 0.000243 µM at NAMPT and 0.065 µM in the assay on PC3 cells.
The like results for `CC(=O)N1CCC(c2ccc(C(=O)NCc3ccn4ccnc4c3)cc2)CC1` [Example 313, 4-(1-acetylpiperidin-4-yl)-N-(imidazo[1,2-a]pyridin-7-ylmethyl)benzamide] were, in that order, 0.531 µM, 0.00036 µM and 0.82 µM.
As for `CC(C)(C)OC(=O)N1CC=C(c2ccc(CC(=O)Nc3ccc4nccn4c3)cc2)CC1` [Example 314, tert-butyl 4-{4-[2-(imidazo[1,2-a]pyridin-6-ylamino)-2-oxoethyl]phenyl}-3,6-dihydropyridine-1(2H)-carboxylate], the concentration for half-maximal inhibition (IC50) stood at 1.98 µM in assay [1], 0.000581 µM on NAMPT and 0.395 µM in the assay on PC3 cells.
The like results for `CC(C)Cn1cc(-c2ccc(C(=O)NCc3ccn4ccnc4c3)cc2)cn1` [Example 315, N-(imidazo[1,2-a]pyridin-7-ylmethyl)-4-[1-(2-methylpropyl)-1H-pyrazol-4-yl]benzamide] were, in that order, 0.231 µM, 0.00032 µM and 0.72 µM.
The like results for `O=C(NCc1ccn2ccnc2c1)c1ccc(-c2cnn(CC3COCCO3)c2)s1` (stereo not drawn) [Example 316, 5-[1-(1,4-dioxan-2-ylmethyl)-1H-pyrazol-4-yl]-N-(imidazo[1,2-a]pyridin-7-ylmethyl)thiophene-2-carboxamide] were, in that order, 0.0421 µM, 0.000169 µM and 0.00634 µM.
Consider `O=C(NCc1ccn2ccnc2c1)c1ccc(-c2cnn(CCO)c2)s1` [Example 317, 5-[1-(2-hydroxyethyl)-1H-pyrazol-4-yl]-N-(imidazo[1,2-a]pyridin-7-ylmethyl)thiophene-2-carboxamide], for which the values for the IC50 (in assay [1]; at NAMPT; in the assay on PC3 cells) were 0.317 µM, 0.000282 µM and 0.542 µM, respectively.
On to `O=C(NCc1ccn2ccnc2c1)c1cnc(C2=CCN(C(=O)C3CCOCC3)CC2)s1` [Example 319, N-(imidazo[1,2-a]pyridin-7-ylmethyl)-2-[1-(tetrahydro-2H-pyran-4-ylcarbonyl)-1,2,3,6-tetrahydropyridin-4-yl]-1,3-thiazole-5-carboxamide], for which the half-inhibitory concentration (IC50) was determined as 0.466 µM in assay [1], 0.000192 µM at NAMPT and 0.0293 µM in the assay on PC3 cells.
The like results for `CC(C)C(=O)N1CC=C(c2ncc(C(=O)NCc3ccn4ccnc4c3)s2)CC1` [Example 320, N-(imidazo[1,2-a]pyridin-7-ylmethyl)-2-[1-(2-methylpropanoyl)-1,2,3,6-tetrahydropyridin-4-yl]-1,3-thiazole-5-carboxamide] were, in that order, 0.0963 µM, 0.000208 µM and 0.171 µM.
In the case of `CC[C@H](C)C(=O)N1CC[C@H](Oc2ccc(C(=O)NCc3ccn4ccnc4c3)cc2)C1` [Example 321, N-(imidazo[1,2-a]pyridin-7-ylmethyl)-4-({(3S)-1-[(2S)-2-methylbutanoyl]pyrrolidin-3-yl}oxy)benzamide], the values for the concentration for half-maximal inhibition (IC50) (in assay [1]; on NAMPT; in the assay with PC3 cells) were 3.16 µM, 0.000792 µM and 1.13 µM, respectively.
The like results for `CC(C)(C)OC(=O)N1CCC(c2ccc(C(=O)Nc3ccn4ccnc4c3)cc2)CC1` [Example 322, tert-butyl 4-[4-(imidazo[1,2-a]pyridin-7-ylcarbamoyl)phenyl]piperidine-1-carboxylate] were, in that order, 6.04 µM, 0.0341 µM and more than 10 µM.
Take `CC(C)(C)OC(=O)N1CCC(c2ccc(C(=O)Nc3ccc4nccn4c3)cc2)CC1` [Example 323, tert-butyl 4-[4-(imidazo[1,2-a]pyridin-6-ylcarbamoyl)phenyl]piperidine-1-carboxylate]: the IC50 in assay [1] turned out to be 1.4 µM; at NAMPT, 0.000232 µM; with PC3 cells it was 0.175 µM.
The like results for `CC(C)C(=O)NC1(c2ccc(C(=O)NCc3ccn4ccnc4c3)s2)COC1` [Example 324, N-(imidazo[1,2-a]pyridin-7-ylmethyl)-5-{3-[(2-methylpropanoyl)amino]oxetan-3-yl}thiophene-2-carboxamide] were, in that order, 0.981 µM, 0.000752 µM and 0.0547 µM.
The like results for `O=C(NC1(c2ccc(C(=O)NCc3ccn4ccnc4c3)s2)COC1)c1ccccc1` [Example 325, 5-[3-(benzoylamino)oxetan-3-yl]-N-(imidazo[1,2-a]pyridin-7-ylmethyl)thiophene-2-carboxamide] were, in that order, 0.18 µM, 0.000278 µM and 0.0329 µM.
The like results for `O=C(CC1CCOC1)NC1(c2ccc(C(=O)NCc3ccn4ccnc4c3)s2)COC1` (stereo not drawn) [Example 326, N-(imidazo[1,2-a]pyridin-7-ylmethyl)-5-{3-[(tetrahydrofuran-3-ylacetyl)amino]oxetan-3-yl}thiophene-2-carboxamide] were, in that order, 2.35 µM, 0.0013 µM and 0.457 µM.
Turning to `CCCCC(=O)NC1(c2ccc(C(=O)NCc3ccn4ccnc4c3)s2)COC1` [Example 327, N-(imidazo[1,2-a]pyridin-7-ylmethyl)-5-[3-(pentanoylamino)oxetan-3-yl]thiophene-2-carboxamide], the IC50 worked out at 1.32 µM in assay [1], 0.000558 µM at NAMPT and 0.638 µM with PC3 cells.
With `CC[C@H](C)C(=O)N1CC[C@H](Oc2ccc(NC(=O)NCc3ccn4ccnc4c3)cc2)C1` [Example 328, 1-(imidazo[1,2-a]pyridin-7-ylmethyl)-3-[4-({(3S)-1-[(2S)-2-methylbutanoyl]pyrrolidin-3-yl]oxy)phenyl}urea], the IC50 stood at 0.068 µM in assay [1], 0.000169 µM on NAMPT and 0.0089 µM with PC3 cells.
With `O=C(NCc1ccn2ccnc2c1)Nc1ccc(O[C@@H]2CCN(C(=O)c3ccccc3)C2)cc1` [Example 329, 1-(4-{[(3R)-1-benzoylpyrrolidin-3-yl]oxy}phenyl)-3-(imidazo[1,2-a]pyridin-7-ylmethyl)urea], the IC50 in assay [1] is 0.0308 µM; on NAMPT it was 0.000169 µM; in the assay with PC3 cells, 0.0124 µM.
In the same order, the values of `CC(C)C(=O)N1CC[C@@H](Oc2ccc(NC(=O)NCc3ccn4ccnc4c3)cc2)C1` [Example 330, 1-(imidazo[1,2-a]pyridin-7-ylmethyl)-3-(4-{[(3R)-1-(2-methylpropanoyl)pyrrolidin-3-yl]oxy}phenyl)urea] are 0.32 µM, 0.000432 µM and 0.0229 µM.
With `O=C(NCc1ccn2ccnc2c1)Nc1ccc(O[C@@H]2CCN(C(=O)C3CC3)C2)cc1` [Example 331, 1-(4-{[(3R)-1-(cyclopropylcarbonyl)pyrrolidin-3-yl]oxy}phenyl)-3-(imidazo[1,2-a]pyridin-7-ylmethyl)urea], the IC50 in assay [1] turned out to be 0.383 µM; on NAMPT it was 0.000416 µM; in the assay on PC3 cells it was 0.227 µM.
In the same order, the values of `O=C(NCc1ccn2ccnc2c1)Nc1ccc(O[C@@H]2CCN(C(=O)CC3CC3)C2)cc1` [Example 332, 1-(4-{[(3R)-1-(cyclopropylacetyl)pyrrolidin-3-yl]oxy}phenyl)-3-(imidazo[1,2-a]pyridin-7-ylmethyl)urea] are 0.18 µM, 0.000297 µM and 0.0643 µM.
The like results for `O=C(NCc1ccn2ccnc2c1)Nc1ccc(O[C@@H]2CCN(C(=O)C3CCOCC3)C2)cc1` [Example 333, 1-(imidazo[1,2-a]pyridin-7-ylmethyl)-3-(4-{[(3R)-1-(tetrahydro-2H-pyran-4-ylcarbonyl)pyrrolidin-3-yl]oxy}phenyl)urea] were, in that order, 0.583 µM, 0.000346 µM and 0.116 µM.
In the same order, the values of `CC(C)(O)C(=O)N1CC[C@@H](Oc2ccc(NC(=O)NCc3ccn4ccnc4c3)cc2)C1` [Example 334, 1-(4-{[(3R)-1-(2-hydroxy-2-methylpropanoyl)pyrrolidin-3-yl]oxy}phenyl)-3-(imidazo[1,2-a]pyridin-7-ylmethyl)urea] are 0.0809 µM, 0.000345 µM and 0.0219 µM.
`O=C(NCc1ccn2ccnc2c1)Nc1ccc(O[C@@H]2CCN(C(=O)[C@H]3CCCO3)C2)cc1` [Example 335, 1-(imidazo[1,2-a]pyridin-7-ylmethyl)-3-[4-({(3R)-1-[(2R)-tetrahydrofuran-2-ylcarbonyl]pyrrolidin-3-yl}oxy)phenyl]urea]: the IC50 stood at 0.632 µM in assay [1], 0.000354 µM on NAMPT and 0.0976 µM in the assay on PC3 cells.
